Source: patent US10966426B2, “Herbicidal compositions comprising phenylpyrimidines” (BASF SE, priority 2016, dated 2021)
Where “and” joins values, the source holds several entries; their conditions need not be identical. Equal values may be shown once.

How the values were obtained:
Type in all cases: in vivo
Papaver rhoeas = experiment: greenhouse pre-emergence treatment, PAPRH; conditions: 20 DAT; for % activity, solo application: Table X6
Outline: (§1)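 Pre-emergence spray of compounds, alone or as combinations formulated as 10% emulsion concentrate in water, directly after sowing in loamy sand (~3.0% humus); pots hooded until rooting, kept at 10-25° C or 20-35° C per species for 2 to 4 weeks. Damage scored 0-100 (100 = no emergence/complete destruction); Colby expected value E=X+Y−(X·Y/100).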

Galium aparine = experiment: greenhouse pre-emergence treatment, GALAP; conditions: GALAP
Outline: as §1

Digitaria sanguinalis = experiment: greenhouse pre-emergence treatment, DIGSA; conditions: DIGSA; for % activity, solo application: 62.5 gai/ha
Outline: as §1

Bromus sterilis = experiment: greenhouse pre-emergence treatment, BROST; conditions: BROST
Outline: as §1

Apera spica-venti [1] = experiment: greenhouse pre-emergence treatment, APESV; conditions: solo, 20 DAT
Outline: as §1

Apera spica-venti [2] = experiment: greenhouse post-emergence treatment, APESV; conditions: APESV, 20 DAT
Outline: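 Mixtures formulated as 10% by weight emulsion concentrates, applied in water post-emergence to plants of 3–15 cm. Cool-season species held at 10-25° C., warm-season at 20-35° C.; rating 0 (no damage) to 100 (destruction).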

Lolium perenne = experiment: greenhouse post-emergence treatment, LOLPE; conditions: 20 DAT, 2nd series of rows
Description: The culture containers used were plastic pots containing loamy sand with approximately 3.0% of humus as substrate. The seeds of the test plants were sown separately for each species.
To this end, the test plants were either sown directly, and grown in the same containers, or they were first grown separately as seedlings and transplanted into the test containers a few days prior to treatment.
Depending on the species, the plants were kept at 10-25° C. and 20-35° C., respectively.
The test period extended over 2 to 4 weeks. During this time, the plants were tended and their response to the individual treatments was evaluated.
Evaluation was carried out using a scale from 0 to 100. 100 means no emergence of the plants, or complete destruction of at least the above-ground parts, and 0 means no damage or normal course of growth. A good herbicidal activity is given at values of at least 70, and very good herbicidal activity is given at values of at least 85.
In the examples, the solvent used was water.
In the examples below, using the method of S. R. Colby (1967) “Calculating synergistic and antagonistic responses of herbicide combinations”, Weeds 15, p. […] E=X+Y−(X·Y/100) where X=effect in percent using herbicide A at an application rate a; • Y=effect in percent using herbicide B at application rate b; • E=expected effect (in %) of herbicide A+herbicide B at application rates a+b.

BRAPL = experiment: greenhouse pre-emergence treatment, BRAPL; conditions: Table X9, 21 DAT, solo Ex. 5 125 gai/ha
[3] = 20 DAT, solo Ex. 5 31.25 gai/ha
[4] = Table X9, 21 DAT, solo Ex. 5 125 gai/ha
[5] = Table X13, 20 DAT, solo Ex. 5 125 gai/ha

O=C(O)c1nc(C2CC2)ncc1-c1ccccc1Cl [Ex. 5]
% activity (Papaver rhoeas; solo Ex. 5 31.25 gai/ha): 0%
% activity, solo application (Papaver rhoeas; 31.25 gai/ha): 20%
% activity, solo application (Papaver rhoeas; 125 gai/ha): 85%
% activity (Papaver rhoeas; solo, 62.5 gai/ha): 70%
% activity, solo application (Galium aparine; 62.5 gai/ha, 20 DAT, Table X1): 0%
% activity, solo application (Galium aparine; 62.5 gai/ha, 20 DAT, Table X2): 0%
% activity, solo application (Galium aparine; 62.5 gai/ha, 20 DAT, Table X6): 0%
% activity, solo application (Galium aparine; 125 gai/ha, 20 DAT, Table X2): 40%
% activity (Galium aparine; Ex. 5 solo, 62.5 gai/ha, 20 DAT): 0%
% activity (Galium aparine; Ex. 5 solo, 125 gai/ha, 20 DAT): 0%
% activity (Galium aparine; [3]): 0%
% activity (Galium aparine; 20 DAT, solo Ex. 5 62.5 gai/ha): 0%
% activity (Galium aparine; 20 DAT, solo Ex. 5 125 gai/ha): 0%
% activity (Galium aparine; solo Ex. 5 31.25 gai/ha, 20 DAT): 0%
% activity (Galium aparine; solo Ex. 5 62.5 gai/ha, 20 DAT): 0%
% activity (Galium aparine; solo Ex. 5 125 gai/ha, 20 DAT): 0%
% activity (Galium aparine; [4]): 0%
% activity (Galium aparine; Table X9, 21 DAT, solo Ex. 5 250 gai/ha): 0%
% activity (Galium aparine; Table X10, 20 DAT, solo Ex. 5 62.5 gai/ha): 0%
% activity (Galium aparine; Table X10, 20 DAT, solo Ex. 5 125 gai/ha): 20%
% activity (Galium aparine; Table X10, 20 DAT, solo Ex. 5 250 gai/ha): 35%
% activity (Galium aparine; Table X11, 20 DAT, solo Ex. 5 62.5 gai/ha): 0%
% activity (Galium aparine; Table X11, 20 DAT, solo Ex. 5 125 gai/ha): 0%
% activity (Galium aparine; Table X13, 20 DAT, solo Ex. 5 62.5 gai/ha): 20%
% activity (Galium aparine; [5]): 35%
% activity (Galium aparine; solo, 31.25 gai/ha, 20 DAT): 0%
% activity (Galium aparine; solo, 62.5 gai/ha, 20 DAT): 0%
% activity (Galium aparine; solo, 125 gai/ha, 20 DAT): 0%
% activity (Galium aparine; solo, 250 gai/ha, 21 DAT): 25%
% activity, solo application (Digitaria sanguinalis; 20 DAT, Table X2): 65%
% activity, solo application (Digitaria sanguinalis; 20 DAT, Table X6): 65%
% activity (Digitaria sanguinalis; [3]): 40%
% activity (Digitaria sanguinalis; [4]): 90%
% activity (Digitaria sanguinalis; [5]): 90%
% activity (Digitaria sanguinalis; solo, 31.25 gai/ha, 20 DAT): 65%
% activity (Digitaria sanguinalis; solo, 125 gai/ha, 21 DAT): 60%
% activity (Digitaria sanguinalis; solo, 250 gai/ha, 21 DAT): 65%
% activity, solo application (Bromus sterilis; 62.5 gai/ha, 20 DAT, Table X1): 65%
% activity, solo application (Bromus sterilis; 125 gai/ha, 20 DAT, Table X1): 80%
% activity, solo application (Bromus sterilis; 125 gai/ha, 20 DAT, Table X6): 65%
% activity (Bromus sterilis; [3]): 5%
% activity (Bromus sterilis; solo, 62.5 gai/ha, 20 DAT): 45%
% activity (Bromus sterilis; solo, 125 gai/ha, 21 DAT): 75%
% activity (Apera spica-venti [1]; 31.25 gai/ha): 75%
% activity (Apera spica-venti [1]; 125 gai/ha): 80%
% activity (Apera spica-venti [2]; solo Ex. 5 62.5 gai/ha): 75%
% activity (Apera spica-venti [2]; solo, 62.5 gai/ha): 70%
% activity (Apera spica-venti [2]; solo, 125 gai/ha): 80%
% activity (Apera spica-venti [2]; solo, 250 gai/ha): 85% and 90%
% activity (Lolium perenne; solo Ex. 5 15 gai/ha): 85%
% activity (Lolium perenne; solo Ex. 5 62.5 gai/ha): 80%
% activity (Lolium perenne; solo Ex. 5 250 gai/ha): 85%
% activity (Lolium perenne; solo Ex. 5 500 gai/ha): 85%
% activity (BRAPL): 90%
